Data on 2 compounds can be found in publication PMC3166015 (Emerging Infectious Diseases, 2011).

In the assay the target is NA activity of oseltamivir-resistant (OR, H275Y) pandemic (H1N1) 2009 virus (Influenza A virus, UniProt C3W5S3, H275Y). The class given is biochemical.

Structures are written as SMILES.

`CC(=O)N[C@H]1[C@H]([C@H](O)[C@H](O)CO)OC(C(=O)O)=C[C@@H]1N=C(N)N` [Zanamivir, zanamivir]: the “susceptibility by NA inhibition assay” value was “sensitive”.

Regarding `CCC(CC)[C@H](NC(C)=O)[C@@H]1[C@H](O)[C@@H](C(=O)O)C[C@H]1N=C(N)N` [peramivir], the peramivir susceptibility result is reported as “cross-resistance”.
